Assay results published in patent US20110200556A1, “CHEMOPREVENTION OF HEAD AND NECK SQUAMOUS CELL CARCINOMAS” (THE UNITED STATES OF AMERICA, AS REPRESENTED BY TH E …, priority 2008, published 2011).

System: tongue and oral mucosa
Assay: Oral chemical carcinogenesis by 4NQO in the drinking water
Format: in vivo, C57B1/6 mice
Conditions: 4NQO 50 μg/ml in drinking water, week 12
Protocol: Water was changed weekly.
Methods: Animal studies were carried out according to NIH-approved protocols, in compliance with the Guide for the Care and Use of Laboratory Animals. Female C57B1/6 mice (Harlan Sprague-Dawley, National Cancer Institute at Frederick, Md., USA) 4-6 weeks old and weighing 18 to 20 g, were housed in appropriate sterile filter-capped cages, and fed and given water ad libitum. […] All animals underwent a bi-weekly full oral cavity examination under anesthesia (2-5% Isoflurane, Baxter, Deerfield, Ill., mixed with oxygen), and any observed pathological changes were documented. Animals were euthanized either on week 16 or week 22 for tissue retrieval. Complete autopsies were performed, and tissues were immediately collected and fixed in buffered zinc-formalin (Z-fix, Anatech, Mich.) at room temperature for 12 h. The tissues were then transferred to alcohol 70%, processed for paraffin embedding for histopathological diagnosis and further studies. […] Animals were monitored daily for general behavioral abnormalities, signs of toxicity, illness or discomfort. Animals were euthanized on week 22, and tissue retrieval was performed as described above.
Water was replaced weekly, and mice were monitored prior to each water change. […] All animals underwent a bi-weekly full oral cavity examination, and any pathological changes were documented. […]

SMILES: O=[N+]([O-])c1cc[n+]([O-])c2ccccc12 [4NQO, 4-nitroquinoline-1 oxide]
- mice that developed tumors in the tongue and other areas of the oral mucosa: around 50%
